# What was measured:
# [1] = target: Abl(h) (Homo sapiens, UniProt P00519); assay: Kinase Profiler; format: biochemical
# Description: (§1) The kinase profiler was performed by the company Eurofins (Discovery, Panlab and Cerep).
# [2] = target: MST4(h) (Homo sapiens, UniProt Q9P289); assay: Kinase Profiler; format: biochemical
# Description: as §1
# [3] = target: PRP4(h) (Homo sapiens, UniProt Q13523); assay: Kinase Profiler; format: biochemical
# Description: as §1
# [4] = system: NIH/3T3 cell adhesion; assay: Cell adhesion assay (xCELLigence impedance); format: cell-based; details: 10^-5 M
# Description: NIH3T3cells (10000/well) were seeded in a 96 well plate microtiter xCELLigence assay plate (E-Plate) (ACEA Biosciences Inc.) and placed on the Real-time xCELLigence Cell Analyzer (Roche Applied Science) platform at 37°C to measure the “cell index” every 5 min for a period of 6 h. The cell index unit is defined as (Rn − Rb)/15. Rn is the cell electrode impedance of the well when it contains cells. Rb is the background impedance of the well with the media alone.
# Supplementary Fig. 3: Example of one pharmacophore model used for virtual screening. (a) The pharmacophore model shown was created based on RAC1 (grey) and NSC23766 (orange) interaction. […] (b) Impact of different screening molecules (10^-5 M) on NIH/3T3 cell adhesion (xCELLingence Real-time cellanalysis, Agilent), migration (CYTOO Mobility plates) and proliferation (xCELLingence Real-time cell analysis, Agilent) .The level of RAC activation is determinedby the detection of RAC-GTP (pull-down assay) in NIH/3T3 cell treated with EGF (10 ng/mL) and the differentmolecules and normalize to the level of RAC activity measuredin the presenceof the reference RAC inhibitor EHT1864.
# Supplementary Fig. 4: A41 inhibits RAC-dependent cell functions. (a) Representative records of single NIH/3T3 cell migration on micropatterned fibronectin lines (CYTOO Mobility plates) in the absence (Control)and presenceA41 at 10^-5 M (left panel) and corresponding quantification of migration speed (right panel) (scale bar: 20µm). […] (b) Typical curves showing the cell index representing the adhesion of NIH/3T3 fibroblast (xCELLingence Real-time cell analysis, Agilent) under control condition (Control) and pre-treated with 10 µM A41 or NSC23766 (left panel) and corresponding quantification of cell adhesion speed (right panel). […]
# [5] = target: CDKL4(h) (Homo sapiens, UniProt Q5MAI5); assay: Kinase Profiler; format: biochemical
# Description: as §1
# [6] = target: PDGFRβ(h) (Homo sapiens, UniProt P09619); assay: Kinase Profiler; format: biochemical
# Chain of PDGFRβ(h) (P09619 33-1106): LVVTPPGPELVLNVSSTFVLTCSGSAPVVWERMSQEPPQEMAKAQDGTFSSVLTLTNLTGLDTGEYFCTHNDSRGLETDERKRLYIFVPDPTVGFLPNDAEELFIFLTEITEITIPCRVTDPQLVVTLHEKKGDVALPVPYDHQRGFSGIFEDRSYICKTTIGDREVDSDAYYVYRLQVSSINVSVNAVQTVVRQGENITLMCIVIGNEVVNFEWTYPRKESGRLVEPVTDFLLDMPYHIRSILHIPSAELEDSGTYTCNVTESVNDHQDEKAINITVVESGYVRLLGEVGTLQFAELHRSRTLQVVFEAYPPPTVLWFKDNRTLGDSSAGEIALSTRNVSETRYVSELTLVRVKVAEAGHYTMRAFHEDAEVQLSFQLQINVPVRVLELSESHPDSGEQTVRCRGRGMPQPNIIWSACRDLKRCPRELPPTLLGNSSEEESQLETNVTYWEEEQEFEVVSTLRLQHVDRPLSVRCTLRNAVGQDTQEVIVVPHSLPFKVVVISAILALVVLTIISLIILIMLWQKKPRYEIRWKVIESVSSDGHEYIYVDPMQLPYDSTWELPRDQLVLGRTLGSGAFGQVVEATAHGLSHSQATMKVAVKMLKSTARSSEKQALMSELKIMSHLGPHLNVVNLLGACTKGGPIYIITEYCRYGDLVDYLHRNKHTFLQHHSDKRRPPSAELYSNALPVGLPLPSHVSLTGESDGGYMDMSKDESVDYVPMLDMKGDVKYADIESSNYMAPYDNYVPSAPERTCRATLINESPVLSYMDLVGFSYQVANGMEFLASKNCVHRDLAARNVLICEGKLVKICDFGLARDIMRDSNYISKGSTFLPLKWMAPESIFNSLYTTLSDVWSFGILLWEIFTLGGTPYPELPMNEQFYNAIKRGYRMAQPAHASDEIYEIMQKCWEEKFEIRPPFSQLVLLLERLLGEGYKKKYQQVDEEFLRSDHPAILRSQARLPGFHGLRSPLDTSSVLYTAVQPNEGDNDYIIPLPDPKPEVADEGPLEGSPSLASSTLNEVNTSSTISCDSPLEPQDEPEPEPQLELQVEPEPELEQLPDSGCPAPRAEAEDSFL
# Description: as §1
# [7] = target: PKBβ(h) (Homo sapiens, UniProt P31751); assay: Kinase Profiler; format: biochemical
# Chain of PKBβ(h) (P31751 whole entry): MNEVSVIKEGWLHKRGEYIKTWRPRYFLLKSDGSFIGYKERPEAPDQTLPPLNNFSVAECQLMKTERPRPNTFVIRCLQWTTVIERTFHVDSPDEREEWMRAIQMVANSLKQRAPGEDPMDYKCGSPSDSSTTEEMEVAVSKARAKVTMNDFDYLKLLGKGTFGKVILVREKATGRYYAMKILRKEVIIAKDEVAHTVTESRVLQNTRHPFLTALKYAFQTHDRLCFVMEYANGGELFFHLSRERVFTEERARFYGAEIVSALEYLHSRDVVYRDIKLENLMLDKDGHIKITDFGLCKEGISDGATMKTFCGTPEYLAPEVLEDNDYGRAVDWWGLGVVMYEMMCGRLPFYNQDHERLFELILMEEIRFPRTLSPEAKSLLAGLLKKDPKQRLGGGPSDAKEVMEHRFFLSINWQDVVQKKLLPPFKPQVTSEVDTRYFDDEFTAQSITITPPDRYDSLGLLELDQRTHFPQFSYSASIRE
# Description: as §1
# [8] = target: NEK2(h) (Homo sapiens, UniProt P51955); assay: Kinase Profiler; format: biochemical
# Description: as §1
# [9] = target: Adrenergic β1 (Homo sapiens, UniProt P08588); assay: Safety screen; format: binding
# Chain of Adrenergic β1 (P08588 whole entry): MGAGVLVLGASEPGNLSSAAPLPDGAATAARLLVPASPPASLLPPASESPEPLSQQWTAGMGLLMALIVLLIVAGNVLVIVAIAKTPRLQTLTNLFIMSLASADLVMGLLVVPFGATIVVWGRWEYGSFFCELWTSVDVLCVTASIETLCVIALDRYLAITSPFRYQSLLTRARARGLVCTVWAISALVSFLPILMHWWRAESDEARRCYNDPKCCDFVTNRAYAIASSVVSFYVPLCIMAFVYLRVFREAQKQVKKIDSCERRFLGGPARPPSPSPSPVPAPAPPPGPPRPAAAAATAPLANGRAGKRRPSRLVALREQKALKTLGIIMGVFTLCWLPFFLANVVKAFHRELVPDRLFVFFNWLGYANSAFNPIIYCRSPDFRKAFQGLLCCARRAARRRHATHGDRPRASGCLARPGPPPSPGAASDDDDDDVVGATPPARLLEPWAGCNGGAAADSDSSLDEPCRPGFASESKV
# Description: Blood cell counts, kinase profiler, safety screen, bacterial cytotoxicity, Ames, micronucleus assays were performed by the company Eurofins (France). The kinase profiler was performed by the company Eurofins (Discovery, Panlab and Cerep).
# [10] = target: ErbB2(h) (Homo sapiens, UniProt P04626); assay: Kinase Profiler; format: biochemical
# Description: as §1
# [11] = target: Flt4(h) (Homo sapiens, UniProt P35916); assay: Kinase Profiler; format: biochemical
# Description: as §1
# [12] = target: Chemokine CXCR2 (IL-8RB) (Homo sapiens, UniProt P25025); assay: Safety screen; format: binding
# Chain of Chemokine CXCR2 (IL-8RB) (P25025 whole entry): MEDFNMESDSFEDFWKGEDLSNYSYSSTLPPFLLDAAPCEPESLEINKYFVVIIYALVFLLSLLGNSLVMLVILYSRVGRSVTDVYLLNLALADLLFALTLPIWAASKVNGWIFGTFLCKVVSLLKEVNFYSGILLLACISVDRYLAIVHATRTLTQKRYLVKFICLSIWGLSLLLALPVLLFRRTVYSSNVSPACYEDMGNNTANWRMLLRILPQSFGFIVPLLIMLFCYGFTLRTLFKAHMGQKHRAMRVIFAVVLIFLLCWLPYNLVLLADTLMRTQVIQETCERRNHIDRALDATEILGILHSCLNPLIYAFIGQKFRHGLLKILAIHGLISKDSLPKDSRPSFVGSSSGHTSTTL
# Description: Blood cell counts, kinase profiler, safety screen, bacterial cytotoxicity, Ames, micronucleus assays were performed by the company Eurofins (France).
# [13] = target: Abl (M351T)(h) (Homo sapiens, UniProt P00519, M351T); assay: Kinase Profiler; format: biochemical
# Description: as §1
# [14] = target: NDR2(h) (Homo sapiens, UniProt Q9Y2H1); assay: Kinase Profiler; format: biochemical
# Chain of NDR2(h) (Q9Y2H1 whole entry): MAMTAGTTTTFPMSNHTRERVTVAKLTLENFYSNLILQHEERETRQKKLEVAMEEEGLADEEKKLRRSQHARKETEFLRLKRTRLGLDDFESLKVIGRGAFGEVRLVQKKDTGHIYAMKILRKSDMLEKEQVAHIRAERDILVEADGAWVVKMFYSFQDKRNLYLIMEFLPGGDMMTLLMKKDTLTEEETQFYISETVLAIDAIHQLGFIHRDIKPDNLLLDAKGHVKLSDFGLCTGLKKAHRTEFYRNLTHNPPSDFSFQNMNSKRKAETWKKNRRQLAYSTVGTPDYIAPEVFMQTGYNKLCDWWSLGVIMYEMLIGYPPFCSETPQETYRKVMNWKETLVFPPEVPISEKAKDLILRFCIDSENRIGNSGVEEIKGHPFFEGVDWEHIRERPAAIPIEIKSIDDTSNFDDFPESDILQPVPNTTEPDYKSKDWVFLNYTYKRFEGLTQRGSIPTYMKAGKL
# Description: as §1
# [15] = target: CK2(h) (Homo sapiens, UniProt P68400); assay: Kinase Profiler; format: biochemical
# Chain of CK2(h) (P68400 whole entry): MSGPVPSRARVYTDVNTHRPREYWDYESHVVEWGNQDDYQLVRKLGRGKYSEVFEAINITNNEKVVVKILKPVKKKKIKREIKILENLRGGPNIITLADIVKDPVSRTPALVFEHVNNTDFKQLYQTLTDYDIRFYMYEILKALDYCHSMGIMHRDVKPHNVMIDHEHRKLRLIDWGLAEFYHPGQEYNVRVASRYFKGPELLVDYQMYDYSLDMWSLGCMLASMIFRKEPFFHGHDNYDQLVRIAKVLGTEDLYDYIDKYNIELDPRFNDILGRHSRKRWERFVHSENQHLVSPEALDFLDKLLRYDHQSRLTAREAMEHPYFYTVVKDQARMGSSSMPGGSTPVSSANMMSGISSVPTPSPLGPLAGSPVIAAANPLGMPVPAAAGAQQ
# Chain of CK2(h) (P67870 whole entry partner): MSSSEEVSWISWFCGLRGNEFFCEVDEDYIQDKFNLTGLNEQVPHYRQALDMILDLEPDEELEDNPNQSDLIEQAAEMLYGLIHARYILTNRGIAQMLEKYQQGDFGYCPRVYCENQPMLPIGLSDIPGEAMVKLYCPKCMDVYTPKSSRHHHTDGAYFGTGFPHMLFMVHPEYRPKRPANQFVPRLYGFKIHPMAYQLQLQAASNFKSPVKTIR
# Description: as §1
# [16] = target: Yes(h) (Homo sapiens, UniProt P07947); assay: Kinase Profiler; format: biochemical
# Chain of Yes(h) (P07947 whole entry): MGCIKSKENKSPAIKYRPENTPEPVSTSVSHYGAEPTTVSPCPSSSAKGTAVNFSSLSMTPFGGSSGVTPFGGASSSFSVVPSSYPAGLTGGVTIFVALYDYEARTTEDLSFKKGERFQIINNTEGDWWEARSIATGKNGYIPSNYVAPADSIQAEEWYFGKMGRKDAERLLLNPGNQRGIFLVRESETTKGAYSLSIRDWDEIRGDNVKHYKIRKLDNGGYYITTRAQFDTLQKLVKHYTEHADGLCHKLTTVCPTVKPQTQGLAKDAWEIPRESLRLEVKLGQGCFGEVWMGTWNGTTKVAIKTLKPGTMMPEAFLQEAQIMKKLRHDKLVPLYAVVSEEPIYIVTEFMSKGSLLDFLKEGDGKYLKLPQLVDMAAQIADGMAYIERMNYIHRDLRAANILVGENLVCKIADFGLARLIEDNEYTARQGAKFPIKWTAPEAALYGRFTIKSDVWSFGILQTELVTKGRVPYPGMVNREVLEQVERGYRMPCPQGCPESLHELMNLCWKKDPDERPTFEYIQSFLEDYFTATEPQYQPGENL
# Description: as §1
# [17] = target: DYRK3(h) (Homo sapiens, UniProt O43781); assay: Kinase Profiler; format: biochemical
# Description: as §1
# [18] = target: FAK(h) (Homo sapiens, UniProt Q05397); assay: Kinase Profiler; format: biochemical
# Description: as §1
# [19] = target: EGFR(h) (Homo sapiens, UniProt P00533); assay: Kinase Profiler; format: biochemical
# Description: as §1
# [20] = target: Itk(h) (Homo sapiens, UniProt Q08881); assay: Kinase Profiler; format: biochemical
# Description: as §1
# [21] = target: EGFR(T790M)(h) (Homo sapiens, UniProt P00533, T790M); assay: Kinase Profiler; format: biochemical
# Description: as §1
# [22] = target: Lyn(m) (Mus musculus, UniProt P25911); assay: Kinase Profiler; format: biochemical
# Description: as §1
# Chain of PRP4(h) (Q13523 whole entry): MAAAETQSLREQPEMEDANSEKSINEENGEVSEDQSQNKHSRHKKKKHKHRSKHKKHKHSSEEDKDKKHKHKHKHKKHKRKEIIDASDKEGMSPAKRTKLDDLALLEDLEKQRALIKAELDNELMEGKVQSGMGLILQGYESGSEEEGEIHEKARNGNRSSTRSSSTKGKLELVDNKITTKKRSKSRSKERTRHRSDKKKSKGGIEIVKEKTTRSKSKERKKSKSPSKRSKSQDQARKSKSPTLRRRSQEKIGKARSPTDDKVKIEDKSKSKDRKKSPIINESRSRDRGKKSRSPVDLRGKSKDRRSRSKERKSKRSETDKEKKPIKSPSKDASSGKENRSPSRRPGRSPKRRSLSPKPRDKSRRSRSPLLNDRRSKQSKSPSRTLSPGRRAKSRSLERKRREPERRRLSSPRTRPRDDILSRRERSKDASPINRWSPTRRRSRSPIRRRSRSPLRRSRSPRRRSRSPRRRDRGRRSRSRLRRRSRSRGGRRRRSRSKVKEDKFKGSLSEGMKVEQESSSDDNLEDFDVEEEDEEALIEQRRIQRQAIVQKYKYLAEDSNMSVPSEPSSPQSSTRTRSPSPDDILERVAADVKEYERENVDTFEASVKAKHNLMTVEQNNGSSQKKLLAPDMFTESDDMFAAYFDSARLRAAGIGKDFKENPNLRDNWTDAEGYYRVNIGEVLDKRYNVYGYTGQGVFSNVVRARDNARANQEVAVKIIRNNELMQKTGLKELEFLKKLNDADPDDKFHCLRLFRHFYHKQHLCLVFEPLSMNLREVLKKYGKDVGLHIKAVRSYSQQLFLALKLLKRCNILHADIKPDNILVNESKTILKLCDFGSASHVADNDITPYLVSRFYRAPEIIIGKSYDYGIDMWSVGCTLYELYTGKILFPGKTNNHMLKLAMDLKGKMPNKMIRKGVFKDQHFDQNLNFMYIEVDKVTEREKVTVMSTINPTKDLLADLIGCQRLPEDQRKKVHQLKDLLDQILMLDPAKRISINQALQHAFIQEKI
compound,measurement,setting,value
COc1ccc(OC)c(NS(=O)(=O)c2ccc(NC(=O)CCSc3ccc(C)cc3)cc2)c1 [Compound A41],Activity(%),[1],90%
same,Activity(%),[2],101%
same,Activity(%),[3],110%
same,cell adhesion,[4],efficiently inhibited both functions
same,Activity(%),[5],91%
same,Activity(%),[6],82%
same,Activity(%),[7],116%
same,Activity(%),[8],118%
same,% inh.,[9],2%
same,Activity(%),[10],116%
same,Activity(%),[11],92%
same,% inh.,[12],1%
same,Activity(%),[13],111%
same,Activity(%),[14],112%
same,Activity(%),[15],110%
same,Activity(%),[16],110%
same,Activity(%),[17],112%
same,Activity(%),[18],111%
same,Activity(%),[19],115%
same,Activity(%),[20],78%
same,Activity(%),[21],113%
same,Activity(%),[22],110%

# — publication PMC12281424, “A Rac-specific competitive inhibitor of guanine nucleotide binding reduces metastasis in triple-negative breast cancer” (Cell Reports Medicine, 2025)
